We go through 25 compounds from US20220127281A1, “HETEROARYL COMPOUNDS THAT INHIBIT G12C MUTANT RAS PROTEINS” (AstraZeneca AB, priority 2017, published 2022).

The target of assay [1] is T1, GDP loaded biotinylated KRas^G12C protein (Homo sapiens, UniProt P01116, G12C).
T1 construct: biotin (biotinylated); made in house
Put plainly: KRasG12C mass spectrometry adducting assay. The format is binding. The note with it: test compound final concentration 10 μM, 4 μM KRasG12C, react for 4 hours. As for the experimental part: KRasG12C Mass Spectrometry Adducting Assay
Enzyme solutions were prepared in assay buffer containing 20 mM HEPES (pH 7.5), 5 mM MgCl2, and 150 mM NaCl. […] The plate was sealed before reading on a Xevo G2 QTOF (Waters) and Acquity LC system (Waters). […] Blank samples were run in between each test sample.
Data was analysed in Mass Lynx software (Waters), the Total ion count (TIC) trace was used and the eluted protein peak data combined. Using the combined spectrum the data was deconvoluted using MaxEnt1 method. The peak area for apo-protein KRas^G12C (APO) and KRAS+relative cmpd mass (adduct) were measured, and a percentage adduct was calculated using the following calculation:
Percent adduct=100*(area of adduct peak/(sum of APO+adduct peaks)

Assay [2] has as its target T1, GDP loaded biotinylated KRas^G12C protein. Kind of assay: KRasG12C functional assay. The format is biochemical. The note with it: HTRF FRET readout of SOS-mediated nucleotide exchange and GST-Raf RBD binding, samples incubated for 4 hrs. As for the experimental part: KRasG12C Functional Assay
All enzyme and substrate solutions were prepared in assay buffer containing 20 mM HEPES (pH 7.5), 5 mM MgCl2, 150 mM NaCl, and 0.01% Tween 20. […] In a separate mix 20 nM GST-Raf Ras binding domain (GST-Raf RBD, purified in house) and 4 μg/ml anti-GST XL665 antibody (Cisbio) was prepared in assay buffer containing 50 mM Potassium Fluoride and 0.05 mg/ml BSA and equilibrated for 4 hours before adding 0.6 μM Guanosine 5′-[γ-thio]triphosphate (GTPγS, Sigma) and 0.08 μM SOS (purified in house). 5 μl of the GST-RAF RBD mix was then dispensed into each well of the assay plate. […] This is detected simultaneously via the specific binding interaction between active GTPγS KRas^G12C with GST-Raf RBD which brings the europium and XL665 into close proximity enabling an increased FRET signal to be detected on a Pherastar (BMG) plate reader equipped with the HTRF filter module. […] IC50 values were calculated from normalised dose-response response FRET data curve fitted in Genedata screener (Basel, Switzerland).
(In TR-FRET formats the signal depends on donor and acceptor labels being close together.)

Where [3] appears, read: KRasG12C functional assay IC50 value (μM).
Where [4] appears, read: read-out: KRasG12C functional assay IC50 value.

Like-named read-outs stand apart in the source and are kept apart here.

T1 sequence (P01116 1-188 isoform P01116-2 G12C): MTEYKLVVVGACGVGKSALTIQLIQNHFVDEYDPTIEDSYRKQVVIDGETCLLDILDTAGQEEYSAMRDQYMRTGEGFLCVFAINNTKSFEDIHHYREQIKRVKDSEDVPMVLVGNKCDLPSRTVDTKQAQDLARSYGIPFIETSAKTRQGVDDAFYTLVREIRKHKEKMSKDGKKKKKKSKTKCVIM

Turning to `C=CC(=O)N1CCN2c3ncnc4cc(-c5c(C)ccc6[nH]ncc56)c(Cl)c(c34)OC[C@@H]2C1` (single isomer, unassigned) [Example 2], the “KRasG12C M.S. Binding Mean adduct %” value in assay [1] was 2%. Moreover, the IC50 (in general, the concentration that inhibits the measured activity by half) in assay [2] (setting [3]) stood at 38.9 µM. For `C=CC(=O)N1CCN2c3ncnc4cc(-c5c(C)ccc6[nH]ncc56)c(Cl)c(c34)OC[C@@H]2C1` (single isomer, unassigned) [Example 3], in that order: 96% and 0.082 µM. For the compound `C=CC(=O)N1CCN2c3ncnc4cc(-c5c(O)cccc5F)c(Cl)c(c34)OC[C@@H]2C1` (single isomer, unassigned) [Example 10], in assay [1], the “KRasG12C M.S. Binding Mean adduct %” value is on record as 30%. Besides, in assay [2] (setting [4]), the IC50 is 0.244 µM.

With `C=CC(=O)N1CCN2c3ncnc4cc(-c5c(O)cccc5F)c(Cl)c(c34)OC[C@@H]2C1` (single isomer, unassigned) [Example 11], the “KRasG12C M.S. Binding Mean adduct %” value in assay [1] amounted to 92%. Moreover, the IC50 in assay [2] (setting [4]) came to 0.097 µM.

For the compound `C=CC(=O)N1CCN2c3ncnc4cc(-c5c(O)cccc5Cl)c(Cl)c(c34)OC[C@@H]2C1` (single isomer, unassigned) [Example 15], in assay [1], the “KRasG12C M.S. Binding Mean adduct %” value came to 12%. For the same compound, in assay [2] (setting [4]), the IC50 is 22.7 µM.

For `C=CC(=O)N1CCN2c3ncnc4cc(-c5c(O)cccc5Cl)c(Cl)c(c34)OC[C@@H]2C1` (single isomer, unassigned) [Example 16], in assay [1], the “KRasG12C M.S. Binding Mean adduct %” value stood at 100%. For the same compound, in assay [2] (setting [4]), the IC50 was 0.032 µM. For `C=CC(=O)N1CCN2c3ncnc4cc(-c5c(O)cccc5OC)c(Cl)c(c34)OC[C@@H]2C1` (single isomer, unassigned) [Example 17], in that order: 0% and over 100 µM. For `C=CC(=O)N1CCN2c3ncnc4cc(-c5c(O)cccc5OC)c(Cl)c(c34)OC[C@@H]2C1` (single isomer, unassigned) [Example 18], in that order: 100% and 0.868 µM. For `C=CC(=O)N1CCN2c3ncnc4cc(-c5c(O)cccc5C#N)c(Cl)c(c34)OC[C@@H]2C1` (single isomer, unassigned) [Example 19], in that order: 0% and 41.8 µM. In the case of `C=CC(=O)N1CCN2c3ncnc4cc(-c5c(O)cccc5C#N)c(Cl)c(c34)OC[C@@H]2C1` (single isomer, unassigned) [Example 20], in assay [1], the “KRasG12C M.S. Binding Mean adduct %” value turned out to be 100%. The IC50 in assay [2] (setting [4]) is 0.191 µM.

As for `C=CC(=O)N1CCN2c3nc(N4CCOCC4)nc4cc(-c5c(C)ccc6[nH]ncc56)c(Cl)c(c34)OC[C@@H]2C1` (single isomer, unassigned) [Example 71], the “KRasG12C M.S. Binding Mean adduct %” value in assay [1] is listed as 83%. For the same compound, the IC50 in assay [2] (setting [4]) was determined as 0.226 µM.

For `C=CC(=O)N1CCN2c3nc(N4CCOCC4)nc4cc(-c5c(C)ccc6[nH]ncc56)c(Cl)c(c34)OC[C@@H]2C1` (single isomer, unassigned) [Example 72], the “KRasG12C M.S. Binding Mean adduct %” value in assay [1] amounted to 5%. Also, the IC50 in assay [2] (setting [4]) amounted to 39.4 µM.

With `C=CC(=O)N1CCN2c3nc(NC4CCN(C5CC5)CC4)nc4cc(-c5c(C)ccc6[nH]ncc56)c(Cl)c(c34)OC[C@@H]2C1` (single isomer, unassigned) [Example 73], the “KRasG12C M.S. Binding Mean adduct %” value in assay [1] worked out at 8%. In addition, the IC50 in assay [2] (setting [4]) is 1.9 µM. The corresponding values for `C=CC(=O)N1CCN2c3nc(NC4CCN(C5CC5)CC4)nc4cc(-c5c(C)ccc6[nH]ncc56)c(Cl)c(c34)OC[C@@H]2C1` (single isomer, unassigned) [Example 74] are 94% and 0.012 µM. As for `C=CC(=O)N1CCN2c3nc(N4CC(N(C)C)C4)nc4cc(-c5c(C)ccc6[nH]ncc56)c(Cl)c(c34)OC[C@@H]2C1` (single isomer, unassigned) [Example 76], in assay [1], the “KRasG12C M.S. Binding Mean adduct %” value was determined as 0%. In addition, the IC50 in assay [2] (setting [4]) was determined as 22.4 µM. For `C=CC(=O)N1CCN2c3nc(N4CC(N(C)C)C4)nc4cc(-c5c(C)ccc6[nH]ncc56)c(Cl)c(c34)OC[C@@H]2C1` (single isomer, unassigned) [Example 77], in that order: 100% and 0.021 µM. For `C=CC(=O)N1CCN2c3nc(NCCN(C)C)nc4cc(-c5c(C)ccc6[nH]ncc56)c(Cl)c(c34)OC[C@@H]2C1` (single isomer, unassigned) [Example 79], in that order: 0% and 1.72 µM. For `C=CC(=O)N1CCN2c3nc(NCCN(C)C)nc4cc(-c5c(C)ccc6[nH]ncc56)c(Cl)c(c34)OC[C@@H]2C1` (single isomer, unassigned) [Example 80], in that order: 90% and 0.018 µM. For `C=CC(=O)N1CCN2c3ncnc4cc(-c5c(C)ccc6[nH]ncc56)c(Cl)c(c34)OCC[C@@H]2C1` (single isomer, unassigned) [Example 81], in assay [1], the “KRasG12C M.S. Binding Mean adduct %” value was 100%. Further, in assay [2] (setting [4]), the IC50 came out at 0.012 µM. On to `C=CC(=O)N1CCN2c3ncnc4cc(-c5c(C)ccc6[nH]ncc56)c(Cl)c(c34)OCC[C@@H]2C1` (single isomer, unassigned) [Example 82], for which, in assay [1], the “KRasG12C M.S. Binding Mean adduct %” value amounted to 26%. Moreover, in assay [2] (setting [4]), the IC50 stood at 0.166 µM. Take `C=CC(=O)N1CCN2c3ncnc4cc(-c5c(C)ccc6[nH]ncc56)c(Cl)c(c34)OC[C@@H]2C1` [Example 1, 1-[(8aS)-6-Chloro-5-(5-methyl-1H-indazol-4-yl)-8a,9,11,12-tetrahydropyrazino-[2′,1′:3,4][1,4]oxazepino[5,6,7-de]quinazolin-10 (8H)-yl]-2-propen-1-one]: the “KRasG12C M.S. Binding Mean adduct %” value in assay [1] worked out at 95%. In assay [2] (setting [3]), the IC50 was 0.102 µM. As to `Cc1ccc2[nH]ncc2c1-c1cc2ncnc3c2c(c1Cl)OC[C@@H]1CN(C(=O)/C=C/CN(C)C)CCN31` [Example 4, (E)-1-((8aS)-6-Chloro-5-(5-methyl-1H-indazol-4-yl)-8a,9,11,12-tetrahydropyrazino[2′,1′:3,4][1,4]oxazepino[5,6,7-de]quinazolin-10 (8H)-yl)-4-(dimethylamino)but-2-en-1-one], the “KRasG12C M.S. Binding Mean adduct %” value in assay [1] worked out at 74%. In addition, the IC50 in assay [2] (setting [4]) is 0.518 µM. On to `C=CC(=O)N1CCN2c3ncnc4cc(-c5c(C)ccc6[nH]ncc56)cc(c34)OC[C@@H]2C1` [Example 5, 1-[(8aS)-5-(5-Methyl-1H-indazol-4-yl)-8a,9,11,12-tetrahydropyrazino[2′,1′:3,4][1,4]-oxazepino[5,6,7-de]quinazolin-10 (8H)-yl]prop-2-en-1-one], for which the “KRasG12C M.S. Binding Mean adduct %” value in assay [1] was 91%. Moreover, in assay [2] (setting [4]), the concentration for half-maximal inhibition (IC50) amounted to 0.798 µM. The corresponding values for `C=CC(=O)N1CCN2c3ncnc4cc(-c5c(C)ccc6[nH]ncc56)cc(c34)OC[C@H]2C1` [Example 6, 1-[(8aR)-5-(5-Methyl-1H-indazol-4-yl)-8a,9,11,12-tetrahydropyrazino[2′,1′:3,4]-[1,4]oxazepino[5,6,7-de]quinazolin-10 (8H)-yl]prop-2-en-1-one] are 68% and 2.37 µM. For the compound `C=CC(=O)N1CCN2c3ncnc4c(F)c(-c5c(O)cccc5F)c(Cl)c(c34)OC[C@@H]2C1` [Example 69, 1-((8aS)-6-chloro-4-fluoro-5-(2-fluoro-6-hydroxyphenyl)-8a,9,11,12-tetrahydro-pyrazino[2′,1′:3,4][1,4]oxazepino[5,6,7-de]quinazolin-10 (8H)-yl)prop-2-en-1-one], the IC50 in assay [2] (setting [4]) amounted to 0.029 µM.
